Calls of active or inactive are those of the source. The calls are words filed in the database; no cut-off is given here.
Experiments:
[1] = system: Osteoblast; assay: Increase in ALP activity in mouse primary osteoblasts at 1 uM relative to control; assay type: functional
[2] = system: Osteoblast; assay: Increase in ALP activity in mouse primary osteoblasts at 20 uM relative to control; assay type: functional
[3] = system: Osteoblast; assay: Increase in ALP activity in mouse primary osteoblasts at 10 uM relative to control; assay type: functional
[4] = system: Osteoblast; assay: Cytotoxicity against mouse primary osteoblasts at 20 uM by MTT assay; assay type: functional, cell-based
[5] = system: Osteoblast; assay: Increase in collagen synthesis in mouse primary osteoblasts; assay type: functional, cell-based
[6] = system: Osteoblast; assay: Effect on mineralization in mouse primary osteoblasts by measuring calcium deposition; assay type: functional, cell-based
[7] = system: Osteoblast; assay: Increase in collagen synthesis in mouse primary osteoblasts at 10 uM relative to control; assay type: functional

| Structure (SMILES) | Activity [1] [%] | Activity [2] [%] | Activity [3] [%] | Activity [4] | Activity [5] | Activity [6] | Activity [7] [%] |
| --- | --- | --- | --- | --- | --- | --- | --- |
| COc1cc(O)c2c(=O)cc(-c3ccc(OC)c(-c4c(OC)cc(O)c5c(=O)cc(-c6ccc(O)cc6)oc45)c3)oc2c1 | 108.4 | 122 | 129.7 |  |  |  |  |
| COc1ccc(-c2cc(=O)c3c(O)cc(O)cc3o2)cc1-c1c(OC)cc(O)c2c(=O)cc(-c3ccc(O)cc3)oc12 | 101.1 | 73.5 | 113 | Active |  |  |  |
| COc1ccc(-c2cc(=O)c3c(O)cc(OC)c(-c4cc(-c5cc(=O)c6c(O)cc(OC)cc6o5)ccc4OC)c3o2)cc1 | 105.1 | 149.5 | 147.3 |  | Active | Active |  |
| COc1ccc(-c2cc(=O)c3c(O)cc(O)cc3o2)cc1-c1c(O)cc(O)c2c(=O)cc(-c3ccc(O)cc3)oc12 [BILOBETIN] | 100.9 | 130.6 | 131.9 |  |  | Active |  |
| COc1cc(O)c2c(=O)cc(-c3ccc(OC)c(-c4c(O)cc(O)c5c(=O)cc(-c6ccc(O)cc6)oc45)c3)oc2c1 [GINKGETIN] | 116.8 | 39.9 | 69.3 | Active |  |  |  |
| COc1ccc(-c2cc(=O)c3c(O)cc(O)c(-c4cc(-c5cc(=O)c6c(O)cc(OC)cc6o5)ccc4OC)c3o2)cc1 [SCIADOPITISIN] | 121.1 | 153 | 149 |  |  | Active | 180 |
| O=c1c(-c2ccc(O)cc2)coc2cc(O)ccc12 [DAIDZEIN] | 107.8 | 128.1 | 132.8 |  |  |  |  |

— ChEMBL document CHEMBL1147800, “Osteoblast differentiation stimulating activity of biflavonoids from Cephalotaxus koreana” (2006)
